Experimental data as given in PMC10125328 (ACS Bio & Med Chem Au, 2023).
Several values for one entry are separate records, joined by “and”; a condition that tells them apart may be missing. Identical values can stand only once. Like-named read-outs stand apart in the source and are kept apart here.

Tests used:
[1] = target: T1, Ftu-1 β-lactamase (Francisella tularensis, UniProt Q5NH60); conditions: cited from earlier work
[2] = target: T1, Ftu-1 β-lactamase; experiment: biochemical
[3] = target: T1, Ftu-1 β-lactamase; type: biochemical

T1 sequence (Q5NH60 1-287): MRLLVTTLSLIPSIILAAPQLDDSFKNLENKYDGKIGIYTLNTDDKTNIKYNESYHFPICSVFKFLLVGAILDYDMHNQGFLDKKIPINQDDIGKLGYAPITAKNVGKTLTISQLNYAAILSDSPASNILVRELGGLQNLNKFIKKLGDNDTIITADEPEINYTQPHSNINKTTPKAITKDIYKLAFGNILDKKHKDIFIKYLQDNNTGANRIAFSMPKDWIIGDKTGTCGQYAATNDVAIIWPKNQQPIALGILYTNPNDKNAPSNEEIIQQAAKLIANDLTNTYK

C[C@@H](O)[C@H]1C(=O)N2C(C(=O)O)=C(SCCN=CN)C[C@H]12 [imipenem]
Km [1]: 31 ± 4 µM
kcat [1]: 0.017 ± 0.001 S^–1
Ki [2]: 73.8 µM

C[C@H]1[C@H](NC(=O)/C(=N\OC(C)(C)C(=O)O)c2csc(N)n2)C(=O)N1S(=O)(=O)O [aztreonam]
hydrolysis in the presence of Ftu-1 [1]: unhydrolyzed

CO/N=C(\C(=O)N[C@@H]1C(=O)N2C(C(=O)O)=C(COC(N)=O)CS[C@H]12)c1ccco1 [cefuroxime]
Km [1]: 14 ± 2 µM

C[C@@H](O)[C@H]1C(=O)N2C(C(=O)O)=C(S[C@@H]3CN[C@H](C(=O)N(C)C)C3)[C@H](C)[C@H]12 [meropenem]
Ki [2]: 1.53 µM

CC1(C)[C@H](C(=O)O)N2C(=O)C[C@H]2S1(=O)=O [sulbactam]
Ki [2]: 21.1 µM

CC(C)(O/N=C(\C(=O)N[C@@H]1C(=O)N2C(C(=O)[O-])=C(C[n+]3ccccc3)CS[C@H]12)c1csc(N)n1)C(=O)O [ceftazidime]
kcat [1]: 0.022 ± 0.001 S^–1

O=C(Cc1cccs1)N[C@@H]1C(=O)N2C(C(=O)O)=C(CSc3ccc([N+](=O)[O-])c(C(=O)O)c3)CS[C@H]12 [CENTA]
Km ([3]; pH 4.8): 655 ± 37.1 µM
Vmax ([3]; pH 4.8): 1.001 ± 0.005 µM/min
kcat ([3]; pH 4.8): 101 ± 1 min^–1
Vmax ([3]; pH 5.8): 13.12 ± 0.62 µM/min
kcat ([3]; pH 5.8): 1312.75 ± 62.75 min^–1
Vmax ([3]; pH 6.4): 24.8 ± 0.9 µM/min
Vmax ([3]; pH 7.2): 30.5 ± 0.5 µM/min
Km ([3]; pH 7.6): 128 ± 57 µM
Vmax ([3]; pH 7.6): 49.51 ± 15.84 µM/min
kcat ([3]; pH 7.6): 4951.67 ± 1583 min^–1
Km ([3]; pH 8.5): 228 ± 11.1 µM
kcat ([3]; pH 9.5): 38.96 ± 11.2 min^–1
Km ([3]; pH 10.5): 218 ± 30.8 µM
kcat ([3]; pH 10.5): 8.85 ± 0.15 min^–1

C[C@]1(Cn2ccnn2)[C@H](C(=O)O)N2C(=O)C[C@H]2S1(=O)=O [tazobactam]
Ki [2]: 1.19 µM and 1.2 µM

CO[C@@]1(NC(=O)Cc2cccs2)C(=O)N2C(C(=O)O)=C(COC(N)=O)CS[C@@H]21 [cefoxitin]
hydrolysis in the presence of Ftu-1 [1]: unhydrolyzed

O=C(O)[C@H]1/C(=C/CO)O[C@@H]2CC(=O)N21 [clavulanic acid]
Ki [2]: 30.7 µM
